Results on one compound are retold here after paper PMC10094510, “Novel Cannabinoid Receptor 2 (CB2) Low Lipophilicity Agonists Produce Distinct cAMP and Arrestin Signalling Kinetics without Bias” (International Journal of Molecular Sciences, 2023).

The subject of one series is rodents. Details: method as in PMID 22444677, PMID 25721168. Particulars: cited from earlier work.
Series [1] concerns CB2. More on the design: method as in PMID 22444677. The note with it: error not shown; cited from earlier work.
For series [2], the target named is T1, human CB2 (Homo sapiens, UniProt P34972, Q63R).
T1 construct: HA (N); 3TCS (N); expressed in transfected cells; host or cells: HEK-293S cells, transient transfection (PEI max)
The series can be described thus: Competition radioligand binding assay ([3H]-CP55,940), hCB2 membranes. Here is the method: The concentration of DMSO was kept equivalent across all test conditions. All dilutions were dispensed into a 96-well, polypropylene V-bottom plate (Gene Era Biotech, Hangzhou, China). […] All conditions were carried out in technical duplicate. The plate was then sealed, tap-mixed, then incubated at 30 °C for 1 h. A total of 50 µL of 0.1% PEI (Sigma-Aldrich, St. Louis, MI, USA) in MQ water was added to each well of a 96-well GF/C harvest plate (Perkin Elmer) 1 h prior to the harvest. When the incubation finished, vacuum (~5 mmHg) was applied to the harvest plate and wells were washed (50 mM HEPES pH 7.4, 500 mM NaCl, 1 mg/mL BSA, MQ water, ice cold). Subsequently, the contents of the V-bottom plate were transferred to corresponding wells in the harvest plate, wash buffer was used to wash the remaining contents of the V-bottom wells before transferring this to the harvest plate, then the harvest plate was washed an additional three times. The plate was dried for ~24 h at 24 °C. To prepare for reading, the bottom of the plate was sealed, each well received 50 µL of Irgasafe Plus scintillation fluid (Perkin Elmer), followed by sealing the top of the plate. Plates were read in a Wallac MicroBeta® TriLux Liquid Scintillation Counter (Perkin Elmer) with a read time of 2 min/well.
GraphPad Prism (v8.0.2; GraphPad Software, San Diego, CA, USA) was used to fit nonlinear regression curves (One site—Fit Ki) to the corrected counts per minutes (CCPM) of each displacer to determine their pKi (negative log Ki). […] Mean and SEM of pKi values were calculated from independent experiments. […] CB2 selectivity was calculated as […].

The target of series [3] is T1, human CB2. Kind of series: Real-time BRET CAMYEL cAMP biosensor, forskolin-stimulated HEK-293S cells transfected with human CB2. The series is classed as cell-based. Here is the method:
HEK-293S cells (HEK-S; generously provided by Professor David Poyner, Aston Research Centre, RRID:CVCL_A784 [48]) were maintained in T75 flasks (Corning-Costar) with Dulbecco’s Modified Eagle’s Medium high glucose with phenol red, L-glutamine and sodium pyruvate (DMEM; Cytiva SH30243), and 8% foetal bovine serum (FBS; NZ-origin, Moregate Biotech) at 37 °C in a humidified atmosphere containing 5% CO2.
Poly-D-Lysine (PDL) (Sigma-Aldrich) at 0.05 mg/mL in PBS was incubated in wells of 96-well Solid White Flat Bottom Polystyrene TC-treated Microplate (Corning-Costar) at 37 °C for 1 h, then washed with PBS prior to seeding and transfection. Cells were seeded at 45,000 cells/well in DMEM supplemented with 12% FBS.
Plasmids encoding human CB2 (HA-3TCS-hCB2 63R pcDNA5/FRT; 28.5 ng per well) or no receptor (pcDNA5/FRT/CAT; 23.5 ng per well; Thermo Fisher Scientific, Waltham, MA, USA), and either His-CAMYEL (in pcDNA3L; 24 ng per well; ATCC MBA-277; previously described in [49]), or a mix of Rluc8-hβ-arrestin2-Sp1 (in pcDNA3; 0.5 ng per well; previously described in [19]) and Mem-linker-Citrine-SH3 (in pcDNA3; 20 ng per well; previously described in [19, 50]) were diluted in DMEM. Diluted DNA was then co-incubated with polyethyleneimine max (PEI max; Polysciences, Warrington, PA, USA) (Total DNA:PEI ratio of 1:7.5 or 1:6.7 for cAMP or β-arrestin-2 experiments, respectively) in DMEM for 1 h at room temperature (~19–21 °C). These transfection mixes were then added to plated cells, resulting in a final concentration of 8% FBS. Plates were incubated for ~48 h before assaying.
The protocol for measuring levels of cellular cAMP via real-time BRET biosensor (CAMYEL) is adapted from previous publications. In all cAMP experiments, forskolin (Tocris Bioscience, Bristol, UK) was used to stimulate the activation of adenylyl cyclase to raise intracellular cAMP levels. Vehicle (DMSO) was maintained at an equivalent concentration across all conditions. Assays were carried out in technical duplicate. Then, ~48 h post-transfection, plating media was aspirated, and wells were washed with H+B, consisting of HBSS (Life Technologies) and 1 mg/mL BSA (ICPbio). H+B was then added to the wells to initiate a 30 min serum starve at 37 °C. Post-serum starve, coelenterazine h (final concentration 5 μM, NanoLight Technologies, Norman, OK, USA, #301) was added to the wells, and a 5 min pre-reading was conducted using the LUMIstar® Omega luminometer (Rluc and YFP emissions detected at 460 nm and 535 nm, respectively; BMG Labtech, Ortenberg, Germany). Next, forskolin (final concentration 5 μM) was added to all wells (except vehicle-only wells which received DMSO), and plate reading resumed for 5 min. Lastly, CB2 compounds of interest with forskolin, vehicle with forskolin, or vehicle without forskolin, were added to their respective wells, and a final 20 min read was conducted. All compounds and reagents were diluted in H+B prior to addition to the plate. For β-arrestin-2 recruitment assays, an equivalent procedure was followed except no forskolin was included in the assay stimulations.
BRET ratios were calculated by dividing YFP emissions by Rluc emissions, then for the cAMP assay, normalised to the mean of baseline ratio reads (where only coelenterazine h was present) to eliminate any variability present prior to drug addiction. An increase in BRET ratio indicated a decrease in cAMP levels or increase in β-arrestin-2 recruitment. Lowess smoothing (GraphPad Prism) was applied to individual technical replicates within an assay. Concentration response curves for the mean of technical replicates (CRC; “log(agonist) vs. response (three parameters)” nonlinear regression curve model, Hill slope constrained to 1) were drawn for the mean ratios over 20 min stimulation or individual time-points.
(In general: In BRET a luciferase serves as donor, and the signal depends on an acceptor being close.)

The target of series [4] is CB2. Details: method as in PMID 22444677. The note with it: error not shown; cited from earlier work. This is another data set of the same source.
On the set-up of series [5]: method as in PMID 22444677, PMID 25721168. The note with it: cited from earlier work.

T1 sequence (P34972 whole entry Q63R): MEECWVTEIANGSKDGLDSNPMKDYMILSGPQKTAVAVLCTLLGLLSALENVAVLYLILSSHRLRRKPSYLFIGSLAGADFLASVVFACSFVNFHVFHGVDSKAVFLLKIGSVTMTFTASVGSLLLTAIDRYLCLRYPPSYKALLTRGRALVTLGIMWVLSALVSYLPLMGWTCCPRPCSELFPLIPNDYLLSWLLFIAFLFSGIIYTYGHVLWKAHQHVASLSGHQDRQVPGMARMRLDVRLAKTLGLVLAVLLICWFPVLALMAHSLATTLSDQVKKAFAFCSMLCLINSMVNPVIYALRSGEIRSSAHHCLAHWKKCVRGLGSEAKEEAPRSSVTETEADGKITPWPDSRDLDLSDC

With `CCc1c(C)cc(C(=O)NC2(C(=O)O)CCCCC2)c(=O)n1Cc1ccc(F)cc1` [UOSS77, reference compound], in the series on rodents, the “anti-pruritic activity in rodents” value is “shown promise as an anti-pruritic agent”. In addition, the “agonism pEC50 (cAMP)” value with CB2 [1] was 7.6. At human CB2 [2] (0.75 nM [3H]-CP55,940, mean (SEM), read-out: CB2 pKi (±SEM) (converted)), the Ki was 186 nM. Moreover, the “CB2/CB1 Selectivity” value at human CB2 [2] (CB2 selectivity relative to CB1, from Ki (or Kd)) is approximately 80. The “displacement of [3H]-CP55,940 from CB2” value at human CB2 [2] (full displacement = ≥ 75% relative to 1 µM CP55,940) is reported as “fully displaced”. The “2.5 min EC75 concentration (log[compound] M)” value on human CB2 [3] (cAMP assay, calculated from mean EC50 at 2.5 min, Figure S1) is recorded as -7.6 log M. Also, on human CB2 [3] (during 20 min stimulation, 5 μM forskolin), the “time of peak cAMP response (maximal efficacy)” value was 2.5 min. In addition, the EC50 on human CB2 [3] (mean over 20 min stimulation, 5 μM forskolin, mean ± SEM, read-out: cAMP pEC50 (converted)) was 12.6 nM. The “cAMP ΔEmax (absolute magnitude percentage decrease from 100%)” value at human CB2 [3] (mean over 20 min stimulation, 5 μM forskolin, normalised to V 0% and F 100%) came to 33.8 ± 5.5%. In addition, the “CB2 pKi” value at CB2 [4] is 7.4. Moreover, the oral bioavailability result in series [5] was “orally bioavailable”.
